Data reported in patent EP2296651B1, “5-HYDROXYMETHYL-OXAZOLIDIN-2-ONE DERIVATIVES FOR TREATING BACTERIAL INTESTINAL DISEASES” (Actelion Pharmaceuticals Ltd., priority 2008, dated 2009).
Values after ≈ are worked out from the molar mass of the structure shown. Where two headings read alike, the source gives them in different places.

Assays:
[1] = tested on: C. difficile NC 13366; experiment: Broth microdilution MIC, anaerobic; type: cell-based, Clostridium difficile; conditions: Clostridioides difficile, NC13366, 48h at 37°C, quinolone-resistant hypervirulent strain, read-out: MIC regarding C. difficile NC 13366
[2] = tested on: C. difficile ATCC 43596; experiment: Broth microdilution MIC, anaerobic; type: cell-based, Clostridium difficile; conditions: Clostridioides difficile, ATCC43596, 48h at 37°C, read-out: MIC regarding C. difficile ATCC 43596
[3] = tested on: C. perfringens DSM 756; experiment: microbe, parasite or virus in culture; type: cell-based; conditions: Clostridium perfringens, DSM756, 48 h, read-out: MIC regarding C. perfringens DSM 756
[4] = tested on: E. faecalis ATCC 29212; experiment: Broth microdilution MIC, aerobic Gram-positive bacteria; conditions: Enterococcus faecalis, ATCC29212, 48 h
[5] = tested on: E. faecium H 7966; experiment: as above; conditions: Enterococcus faecium, H7966, 48 h
[6] = tested on: E. faecalis H 7094; experiment: as above; conditions: Enterococcus faecalis, H7094, 48 h
[7] = tested on: S. aureus ATCC 29213; experiment: as above; conditions: Staphylococcus aureus, ATCC29213, 48 h
[8] = tested on: E. faecium A 962; experiment: as above; conditions: Enterococcus faecium, A962, 48 h
[9] = tested on: E. faecalis H 7460; experiment: as above; conditions: Enterococcus faecalis, H7460, 48 h
[10] = tested on: E. faecalis H 6279; experiment: as above; conditions: Enterococcus faecalis, H6279, 48 h
[11] = tested on: S. aureus S1 (LZD-R); experiment: as above; conditions: Staphylococcus aureus, 48 h
[12] = tested on: E. faecium L1 (LZD-R); experiment: as above; conditions: Enterococcus faecium, 48 h
[13] = tested on: E. faecium H 7969; experiment: as above; conditions: Enterococcus faecium, H7969, 48 h
[14] = tested on: S. aureus ATCC 43300 (MRSA); experiment: as above; conditions: Staphylococcus aureus, 48 h
[15] = tested on: C. difficile ATCC 9689; experiment: Broth microdilution MIC, anaerobic; type: cell-based, Clostridium difficile; conditions: Clostridioides difficile, ATCC9689, 48h at 37°C, read-out: MIC regarding C. difficile ATCC 9689
[16] = tested on: E. faecalis H 6897; experiment: Broth microdilution MIC, aerobic Gram-positive bacteria; conditions: Enterococcus faecalis, H6897, 48 h
[17] = tested on: E. faecium ATCC 19434; experiment: as above; conditions: Enterococcus faecium, ATCC19434, 48 h
[18] = tested on: 209 diverse clinical isolates of C. difficile; experiment: CLSI agar dilution MIC, clinical isolates; type: cell-based, Clostridium difficile; conditions: Clostridioides difficile, 48 h
[19] = tested on: S. aureus A-798 (MRSA); experiment: Broth microdilution MIC, aerobic Gram-positive bacteria; conditions: Staphylococcus aureus, 48 h
[20] = tested on: E. faecium H 7937; experiment: as above; conditions: Enterococcus faecium, H7937, 48 h
[21] = tested on: E. faecium A 949; experiment: as above; conditions: Enterococcus faecium, A949, 48 h
[22] = tested on: E. faecalis H 4060; experiment: as above; conditions: Enterococcus faecalis, H4060, 48 h
[23] = tested on: E. faecium H 7965; experiment: as above; conditions: Enterococcus faecium, H7965, 48 h
[24] = tested on: E. faecium H 9070; experiment: as above; conditions: Enterococcus faecium, H9070, 48 h
[25] = tested on: C. difficile A-1050 (ATCC 43596); experiment: Spore formation at sub-MIC concentrations; type: cell-based; conditions: 0.5x the MIC; 4 days anaerobic incubation at 37°C
[26] = tested on: C. difficile strain NC 13366; type: cell-based
[27] = tested on: C. difficile strain NC 13366; experiment: microbe, parasite or virus in culture; type: cell-based

SMILES | MIC [1] [mg/L] | MIC [2] [mg/L] | MIC [3] [mg/L] | MIC [4] [mg/L] | MIC [5] [mg/L] | MIC [6] [mg/L] | MIC [7] [mg/L] | MIC [8] [mg/L] | MIC [9] [mg/L] | MIC [10] [mg/L] | MIC [11] [mg/L] | MIC [12] [mg/L] | MIC [13] [mg/L] | MIC [14] [mg/L] | MIC [16] [mg/L] | MIC [17] [mg/L] | MIC [19] [mg/L] | MIC [20] [mg/L] | MIC [21] [mg/L] | MIC [22] [mg/L] | further results
O=C(O)c1cn(C2CC2)c2nc(N3CCC(O)(COc4ccc(N5C[C@H](CO)OC5=O)cc4F)CC3)c(F)cc2c1=O [Example 2, 1-cyclopropyl-6-fluoro-7-{4-[2-fluoro-4-((R)-5-hydroxymethyl-2-oxo-oxazolidin-3-yl)phenoxymethyl]-4-hydroxy-piperidin-1-yl}-4-oxo-1,4-dihydro-[1,8]naphthyridine-3-carboxylic acid] | 0.03 (≈ 0.0511 µM) | 0.06 (≈ 0.102 µM) | ≤ 0.03 | – | – | – | – | – | – | – | – | – | – | – | – | – | – | – | – | – | –
CC(=O)NC[C@H]1CN(c2ccc(N3CCOCC3)c(F)c2)C(=O)O1 [Linezolid] | 1 (≈ 2.96 µM) | 8 (≈ 23.7 µM) | 4 (≈ 11.9 µM) | 2 (≈ 5.93 µM) | 1 (≈ 2.96 µM) | 4 (≈ 11.9 µM) | 2 (≈ 5.93 µM) | 4 (≈ 11.9 µM) | 16 (≈ 47.4 µM) | 2 (≈ 5.93 µM) | > 32 | > 32 | 4 (≈ 11.9 µM) | 2 (≈ 5.93 µM) | 4 (≈ 11.9 µM) | 2 (≈ 5.93 µM) | 2 (≈ 5.93 µM) | 1 (≈ 2.96 µM) | 2 (≈ 5.93 µM) | 2 (≈ 5.93 µM) | MIC [15]: 2 mg/L (≈ 5.93 µM); MIC90 ([18]; 209 clinical isolates of C. difficile, read-out: MIC90): 8 mg/L (≈ 23.7 µM); MIC [23]: 2 mg/L (≈ 5.93 µM); MIC [24]: 2 mg/L (≈ 5.93 µM)
Cc1ncc([N+](=O)[O-])n1CCO [metronidazole] | – | – | – | – | – | – | – | – | – | – | – | – | – | – | – | – | – | – | – | – | spores of total cell count [25]: > 90%; de novo toxin A production ([26]; 1 and 8 µg/ml, supernatants at day 5, high density stationary phase cultures): did not inhibit toxin A production under these conditions or did so only weakly
CN[C@H](CC(C)C)C(=O)N[C@H]1C(=O)N[C@@H](CC(N)=O)C(=O)N[C@H]2C(=O)N[C@H]3C(=O)N[C@H](C(=O)N[C@H](C(=O)O)c4cc(O)cc(O)c4-c4cc3ccc4O)[C@H](O)c3ccc(c(Cl)c3)Oc3cc2cc(c3O[C@@H]2O[C@H](CO)[C@@H](O)[C@H](O)[C@H]2O[C@H]2C[C@](C)(N)[C@H](O)[C@H](C)O2)Oc2ccc(cc2Cl)[C@H]1O [vancomycin] | – | – | – | 1 (≈ 0.69 µM) | > 32 | > 32 | 1 (≈ 0.69 µM) | > 32 | > 32 | > 32 | 1 (≈ 0.69 µM) | 0.5 (≈ 0.345 µM) | > 32 | 1 (≈ 0.69 µM) | > 32 | 1 (≈ 0.69 µM) | 1 (≈ 0.69 µM) | > 32 | > 32 | > 32 | spores of total cell count [25]: > 90%; de novo toxin A production [26]: did not inhibit toxin A production under these conditions or did so only weakly; MIC90 [18]: 2 mg/L (≈ 1.38 µM); MIC [23]: > 32 mg/L; toxin B activities of the supernatants, reduction compared to the untreated control [27]: not reduced; inhibition at 8 µg/mL ([27]; Clostridioides difficile, NC13366, CHO, 120 h, read-out: toxin B activities of the supernatants, reduction compared to the untreated control): 30%; MIC [24]: > 32 mg/L
